According to ChEMBL document CHEMBL1212812, “Multi-target spectral moment QSAR versus ANN for antiparasitic drugs against different parasite species” (Bioorg Med Chem, 2010):

Tests used:
Assay type in all cases: functional, organism-based
[1] = test system: Leishmania donovani; assay: Antimicrobial activity against Leishmania donovani
[2] = test system: Trypanosoma cruzi; assay: Antimicrobial activity against Trypanosoma cruzi
[3] = test system: Plasmodium falciparum; assay: Antimicrobial activity against Plasmodium falciparum
[4] = test system: Trichomonas vaginalis; assay: Antimicrobial activity against Trichomonas vaginalis
[5] = test system: Leishmania infantum; assay: Antimicrobial activity against Leishmania infantum
[6] = test system: Entamoeba histolytica; assay: Antimicrobial activity against Entamoeba histolytica

Structure (SMILES)	IC50 ([2]; Trypanosoma cruzi) [µM]	IC50 [1] [µM]	also measured
CCCC[C@H]1C(=O)O[C@@H]2O[C@@]3(CC)CC[C@H]4[C@H](C)CC[C@@H]1[C@@]24OO3	–	36	–
O=[N+]([O-])c1ccc2nc(Cl)sc2c1	–	–	IC50 [4]: 2 µM; IC50 [5]: 48 µM
CN(C)c1ccc(Nc2nc3ccc([N+](=O)[O-])cc3s2)cc1	–	–	IC50 [4]: 166 µM; IC50 [5]: 25 µM
C[C@@H]1CC[C@H]2CC(=O)O[C@@H]3O[C@@]4(C)CC[C@@H]1[C@@]23OO4	–	242	–
CC[C@H]1C(=O)O[C@@H]2O[C@@]3(C)CC[C@H]4[C@H](C)CC[C@@H]1[C@@]24OO3	–	61	–
c1ccc(Oc2ccc(OCN3CC3)cc2)cc1	42	–	–
CCC[C@H]1C(=O)O[C@@H]2O[C@@]3(C)CC[C@H]4[C@H](C)CC[C@@H]1[C@@]24OO3	–	17	–
C=CC[C@H]1C(=O)O[C@@H]2O[C@@]3(C)CC[C@H]4[C@H](C)CC[C@@H]1[C@@]24OO3	–	18	–
CCCC[C@H]1C(=O)O[C@@H]2O[C@@]3(C)CC[C@H]4[C@H](C)CC[C@@H]1[C@@]24OO3	–	12	–
CC(C)CCC[C@H]1C(=O)O[C@@H]2O[C@@]3(C)CC[C@H]4[C@H](C)CC[C@@H]1[C@@]24OO3	–	9	–
C[C@@H]1CC[C@H]2[C@@H](CCCC(F)(F)F)C(=O)O[C@@H]3O[C@@]4(C)CC[C@@H]1[C@]32OO4	–	79	–
C[C@@H]1CC[C@H]2[C@H](CCCc3ccccc3)C(=O)O[C@@H]3O[C@@]4(C)CC[C@@H]1[C@]32OO4	–	45	–
C[C@@H]1CC[C@H]2[C@@H](CCCCc3ccccc3)C(=O)O[C@@H]3O[C@@]4(C)CC[C@@H]1[C@]32OO4	–	8	–
C[C@@H]1CC[C@H]2[C@@H](CCCc3cccc(F)c3)C(=O)O[C@@H]3O[C@@]4(C)CC[C@@H]1[C@]32OO4	–	4	–
C[C@@H]1CC[C@H]2[C@@H](CCCc3ccc(Cl)cc3)C(=O)O[C@@H]3O[C@@]4(C)CC[C@@H]1[C@]32OO4	–	12	–
COc1ccc(CCC[C@H]2C(=O)O[C@@H]3O[C@@]4(C)CC[C@H]5[C@H](C)CC[C@@H]2[C@@]35OO4)cc1	–	12	–
CSc1ccc(CCC[C@H]2C(=O)O[C@@H]3O[C@@]4(C)CC[C@H]5[C@H](C)CC[C@@H]2[C@@]35OO4)cc1	–	1	–
C[C@@H]1CC[C@H]2[C@@H](CCCc3ccc(S(C)(=O)=O)cc3)C(=O)O[C@@H]3O[C@@]4(C)CC[C@@H]1[C@]32OO4	–	54	–
C[C@@H]1CC[C@H]2[C@@H](CCCc3cc(F)cc(F)c3)C(=O)O[C@@H]3O[C@@]4(C)CC[C@@H]1[C@]32OO4	–	50	–
C[C@]12CC[C@H](O)C[C@@H]1CC[C@@H]1[C@@H]2CC[C@@]2(C)[C@H]1CC[C@@H]2[C@@](C)(O)C1CCCCN1 (stereo not given in full)	1	–	–

Structure (SMILES)	IC50 ([2]; Trypanosoma cruzi) [µM]	IC50 [1] [µM]	also measured
N#CSCCOc1ccc(Nc2ccccc2)cc1	3	–	–
C[C@@H]1CC[C@H]2[C@@H](CCCc3ccc(Cl)cc3)CO[C@@H]3O[C@@]4(C)CC[C@@H]1[C@]32OO4	–	5	–
C[C@@H]1CC[C@H]2[C@@H](CCCc3ccc(C(F)(F)F)cc3)C(O)O[C@@H]3O[C@@]4(C)CC[C@@H]1[C@]32OO4 (stereo not given in full)	–	3	–
C[C@@H]1CC[C@H]2[C@@H](CCCc3ccc(C(F)(F)F)cc3)CO[C@@H]3O[C@@]4(C)CC[C@@H]1[C@]32OO4	–	2	–
C[C@@H]1CC[C@H]2[C@@H](CCCc3cccc(Cl)c3)CO[C@@H]3O[C@@]4(C)CC[C@@H]1[C@]32OO4	–	4	–
C[C@@H]1CC[C@H]2[C@@H](CCCc3ccc(Cl)cc3)C(O)O[C@@H]3O[C@@]4(C)CC[C@@H]1[C@]32OO4 (stereo not given in full)	–	5	–
CCCN(CCC)c1c([N+](=O)[O-])cc(S(=O)(=O)Nc2cc(Cl)cc(Cl)c2)cc1[N+](=O)[O-]	–	4	–
CCC[C@@]12CC[C@H]3[C@H](C)CC[C@H]4CC(=O)O[C@H](O1)[C@]43OO2	–	41	–
CCOC(=O)CC[C@@]12CC[C@H]3[C@H](C)CC[C@H]4CC(=O)O[C@H](O1)[C@]43OO2	–	31	–
O=C(/C=C/C=C/C=C/c1ccc2c(c1)OCO2)N1CCCCC1	7	–	–
C[C@@H]1CC[C@H]2[C@@H](CCCc3ccc(Cl)c(Cl)c3)CO[C@@H]3O[C@@]4(C)CC[C@@H]1[C@]32OO4	–	2	–
CCCN(CCC)c1c([N+](=O)[O-])cc(S(=O)(=O)N(c2ccccc2)c2ccccc2)cc1[N+](=O)[O-]	–	100	–
CCCCN(CCCC)c1c([N+](=O)[O-])cc(S(=O)(=O)Nc2ccccc2)cc1[N+](=O)[O-]	–	3	–
CCCC[C@H]1C(=O)O[C@@H]2O[C@@]3(CCCCc4ccccc4)CC[C@H]4[C@H](C)CC[C@@H]1[C@@]24OO3	–	5	–
C[C@@H]1CC[C@H]2CC(=O)O[C@@H]3O[C@@]4(CCCc5ccc(Cl)cc5)CC[C@@H]1[C@@]23OO4	–	11	–
CCCC[C@@]12CC[C@H]3[C@H](C)CC[C@H]4CC(=O)O[C@H](O1)[C@]43OO2	–	258	–
O=P(O)(O)C(NCCc1ccccc1)P(=O)(O)O [(PHENETHYLAMINO)METHYLENEDIPHOSPHONIC ACID]	–	–	IC50 [6]: 200 µM; IC50 [3]: 200 µM
CCCNC(P(=O)(O)O)P(=O)(O)O [(PROPYLAMINO)METHYLENEDIPHOSPHONIC ACID]	–	–	IC50 [6]: 200 µM; IC50 [3]: 200 µM
NCCCC(O)(P(=O)(O)O)P(=O)(O)O [ALENDRONIC ACID]	–	–	IC50 [6]: 200 µM; IC50 [3]: 200 µM
O=c1ncnc2n([C@H]3O[C@@H](CO)[C@H](O)[C@@H]3O)[nH]cc1-2 [ALLOPURINOL RIBOSIDE]	–	4	–

Structure (SMILES)	IC50 ([2]; Trypanosoma cruzi) [µM]	IC50 [1] [µM]	also measured
C[C@@H]1[C@H](O)[C@@H](C)/C=C/C=C/C=C/C=C/C=C/C=C/C=C/[C@H](O[C@@H]2O[C@H](C)[C@@H](O)[C@H](N)[C@@H]2O)C[C@@H]2O[C@](O)(C[C@@H](O)C[C@@H](O)[C@H](O)CC[C@@H](O)C[C@@H](O)CC(=O)O[C@H]1C)C[C@H](O)[C@H]2C(=O)O [AMPHOTERICIN B]	–	–	IC50 [4]: 12 µM
CCO[C@H]1O[C@@H]2O[C@@]3(C)CC[C@H]4[C@H](C)CC[C@@H]([C@H]1C)[C@@]24OO3 [ARTEMOTIL]	–	45	IC50 [3]: 1000 µM
O=C(Cn1ccnc1[N+](=O)[O-])NCc1ccccc1 [BENZNIDAZOLE]	3	–	–
O=P(O)(O)C(O)(C1CCC1)P(=O)(O)O [CYCLOBUTYL(HYDROXY)METHYLENEDIPHOSPHONIC ACID]	–	–	IC50 [6]: 200 µM; IC50 [3]: 200 µM
O=P(O)(O)C(O)(C1CCCCC1)P(=O)(O)O [CYCLOHEXYL(HYDROXY)METHYLENEDIPHOSPHONIC ACID]	–	–	IC50 [6]: 200 µM; IC50 [3]: 200 µM
O=P(O)(O)C(O)(C1CC1)P(=O)(O)O [CYCLOPROPYL(HYDROXY)METHYLENEDIPHOSPHONIC ACID]	–	–	IC50 [6]: 200 µM; IC50 [3]: 200 µM
NCCC[C@](N)(C(=O)O)C(F)F [EFLORNITHINE, (S)-]	–	225	–
CCCCCN(C)CCC(O)(P(=O)(O)O)P(=O)(O)O [IBANDRONIC ACID]	–	–	IC50 [6]: 54 µM; IC50 [3]: 59 µM
O=P(O)(O)C(NC1CCCCCC1)P(=O)(O)O [INCADRONIC ACID]	–	–	IC50 [6]: 200 µM; IC50 [3]: 200 µM
CC(=O)N1CCN(c2ccc(OCC3COC(Cn4ccnc4)(c4ccc(Cl)cc4Cl)O3)cc2)CC1 (stereo not given) [KETOCONAZOLE]	3	2	–
Cc1ncc([N+](=O)[O-])n1CCO [METRONIDAZOLE]	–	–	IC50 [4]: 3 µM
O=P(O)(O)C(N1CCCCCC1)P(=O)(O)O [N-(HEXAMETHYLENEIMINO)METHYLENEBISPHOSPHONIC ACID]	–	–	IC50 [6]: 200 µM; IC50 [3]: 200 µM
NCCCCCC(O)(P(=O)(O)O)P(=O)(O)O [NERIDRONIC ACID]	–	–	IC50 [6]: 200 µM; IC50 [3]: 200 µM
CN(C)CCC(O)(P(=O)(O)O)P(=O)(O)O [OLPADRONIC ACID]	–	–	IC50 [6]: 200 µM; IC50 [3]: 200 µM
NCCC(O)(P(=O)(O)O)P(=O)(O)O [PAMIDRONIC ACID]	–	–	IC50 [6]: 200 µM; IC50 [3]: 200 µM
O=C(/C=C/C=C/c1ccc2c(c1)OCO2)N1CCCCC1 [PIPERINE]	5	–	–
Nc1ncnc2c1ncn2[C@@H]1O[C@H](C[C@@H](N)CC[C@H](N)C(=O)O)[C@@H](O)[C@H]1O [SINEFUNGIN]	–	1	–
C[S+]([O-])CCCCN=C=S (stereo not given) [SULFORAPHANE]	120	–	IC50 [2]: 102 µM
O=P(O)(O)C(N1CCSCC1)P(=O)(O)O [THIOMORPHOLINOMETHYLENEDIPHOSPHONIC ACID]	–	–	IC50 [6]: 200 µM; IC50 [3]: 200 µM

Now from value to compound, other results behind:

IC50 ([2]; Trypanosoma cruzi) [µM]	Structure (SMILES)	IC50 [1] [µM]	also measured
96	O=C(/C=C/c1ccc2c(c1)OCO2)N1CCOCC1	–	–
32	Cn1c2nc3ccc(C#N)cc3c-2cc2cc(F)ccc21	–	–
2	COc1ccc2c(c1)cc1c3ccccc3nc-1n2C	–	IC50 [3]: 5 µM
10	N#CSCCOc1ccc2[nH]c3ccccc3c2c1	–	–
70	O=C=NCCOc1ccc(Oc2ccccc2)cc1	–	–
70	[N-]=[N+]=NCCOc1ccc(Oc2ccccc2)cc1	–	–
70	[N-]=[N+]=NC(CO)COc1ccc(Oc2ccccc2)cc1 (stereo not given)	–	–
1	COc1ccc2cc3c4ccccc4nc-3n(C)c2c1	–	IC50 [3]: 2 µM
81	O=C(/C=C/C=C/c1ccc2c(c1)OCO2)NCC1CCCCC1	–	–
100	CSCCOc1ccc(Oc2ccccc2)cc1	–	–
60	c1ccc(CSCCOc2ccc(Oc3ccccc3)cc2)cc1	–	–
8	N#CSCCOc1ccc([S+]([O-])c2ccccc2)cc1 (stereo not given)	–	–
83	O=C(/C=C/C=C/c1ccc2c(c1)OCO2)OC1CCCCC1	–	–
66	COc1ccc(CCNC(=O)/C=C/C=C/c2ccc3c(c2)OCO3)cc1OC	–	–
4	Cc1ccc2c(c1)cc1c3ccccc3nc-1n2C	–	IC50 [3]: 2 µM
10	C(/C=C/c1ccc2c(c1)OCO2)=C\CN1CCCCC1	–	–
32	Cn1c2nc3ccccc3c-2cc2cc(Br)ccc21	–	–
97	O=C(/C=C/c1ccc2c(c1)OCO2)N1CCCCC1 [ILEPCIMIDE]	–	–
115	O=C(O)/C=C/C=C/c1ccc2c(c1)OCO2 [PIPERIC ACID]	–	–
19	O=C(CCCCc1ccc2c(c1)OCO2)N1CCCCC1 [TETRAHYDROPIPERINE]	–	–
